Data reported in ChEMBL document CHEMBL1201862, “PubChem BioAssay data set” (2004).
Values joined by “and” are separate entries in the source; they are usually repeats but may differ in a detail not shown here. Equal values may be shown once.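 Grown in 96-well plates, cells were treated for 48 hours with each compound at five concentrations. Insufficient inhibition: endpoint recorded as highest concentration tested. GI50 marks 50% less growth.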 Active and inactive are the calls of the source. Cut-off read from the data, not from the text of the source: active = GI50 up to about 1.1 µM and inactive = higher.

What was measured:
Assay in all cases: inhibition of tumour cell growth, NCI panel, 48 h
SNB-19 = tested on: SNB-19
U-251 = tested on: U-251
A549 = tested on: A549
CCRF-CEM = tested on: CCRF-CEM
EKVX = tested on: EKVX
HCT-116 = tested on: HCT-116
HCT-15 = tested on: HCT-15
HL-60 = tested on: HL-60
HT-29 = tested on: HT-29
IGROV-1 = tested on: IGROV-1
K562 = tested on: K562
MCF7 = tested on: MCF7
MDA-MB-435 = tested on: MDA-MB-435
MOLT-4 = tested on: MOLT-4
NCI-H23 = tested on: NCI-H23
NCI/ADR-RES = tested on: NCI/ADR-RES
PC-3 = tested on: PC-3
SF-268 = tested on: SF-268
SF-295 = tested on: SF-295
SK-MEL-5 = tested on: SK-MEL-5
SR = tested on: SR
SW-620 = tested on: SW-620
T47D = tested on: T47D
TK-10 = tested on: TK-10
UACC-62 = tested on: UACC-62
CAKI-1 = tested on: CAKI-1
786-0 = tested on: 786-0
A498 = tested on: A498
ACHN = tested on: ACHN
COLO 205 = tested on: COLO 205
DU-145 = tested on: DU-145
HOP-62 = tested on: HOP-62
Hs-578T = tested on: Hs-578T
KM12 = tested on: KM12
LOX IMVI = tested on: LOX IMVI
M14 = tested on: M14
MDA-MB-231 = tested on: MDA-MB-231
MDA-N = tested on: MDA-N
Malme-3M = tested on: Malme-3M
NCI-H226 = tested on: NCI-H226
OVCAR-3 = tested on: OVCAR-3
OVCAR-4 = tested on: OVCAR-4
OVCAR-5 = tested on: OVCAR-5
OVCAR-8 = tested on: OVCAR-8
RPMI-8226 = tested on: RPMI-8226
SK-MEL-28 = tested on: SK-MEL-28
SK-MEL-2 = tested on: SK-MEL-2
SK-OV-3 = tested on: SK-OV-3
SN12C = tested on: SN12C
SNB-75 = tested on: SNB-75
UACC-257 = tested on: UACC-257
UO-31 = tested on: UO-31
HCC 2998 = tested on: HCC 2998
HOP-92 = tested on: HOP-92
NCI-H522 = tested on: NCI-H522
RXF 393 = tested on: RXF 393
SF-539 = tested on: SF-539

SMILES: Cc1cc(NCCCCCCNc2cc(C)nc3ccc(N)cc23)c2cc(N)ccc2n1
- GI50 (SNB-19): 37 µM (inactive)
- GI50 (U-251): 42.3 µM (inactive)

SMILES: CC1(C)C2CC(=O)C1(C)C(OCc1ccccc1)C2Br (stereo not given)
- GI50 (A549): 37.8 µM (inactive) and 59.3 µM (inactive)
- GI50 (CCRF-CEM): 15.8 µM (inactive) and 20.5 µM (inactive)
- GI50 (EKVX): 50 µM (inactive) and 57.9 µM (inactive)
- GI50 (HCT-116): 19.3 µM (inactive) and 38.2 µM (inactive)
- GI50 (HCT-15): 17.3 µM and 34 µM
- GI50 (HL-60): 22.5 µM (inactive) and 23.2 µM (inactive)
- GI50 (HT-29): 15.5 µM (inactive) and 22.6 µM (inactive)
- GI50 (IGROV-1): 74.8 µM (inactive) and 43.8 µM (inactive)
- GI50 (K562): 27.1 µM (inactive) and 23.2 µM (inactive)
- GI50 (MCF7): 36 µM (inactive) and 62.8 µM (inactive)
- GI50 (MDA-MB-435): 29.9 µM (inactive) and 25.6 µM (inactive)
- GI50 (MOLT-4): 17.7 µM (inactive) and 17.3 µM (inactive)
- GI50 (NCI-H23): 40.7 µM (inactive) and 27.9 µM (inactive)
- GI50 (NCI/ADR-RES): 20.7 µM (inactive) and 36.7 µM (inactive)
- GI50 (PC-3): 18 µM (inactive) and 28.6 µM (inactive)
- GI50 (SF-268): 56.6 µM (inactive)
- GI50 (SF-295): 25.2 µM (inactive) and 50.4 µM (inactive)
- GI50 (SK-MEL-5): 14.6 µM (inactive) and 20.7 µM (inactive)
- GI50 (SR): 21.4 µM (inactive) and 25.1 µM (inactive)
- GI50 (SW-620): 19.3 µM (inactive) and 32.7 µM (inactive)
- GI50 (T47D): 46.2 µM (inactive) and 28.2 µM (inactive)
- GI50 (TK-10): 53.6 µM (inactive)
- GI50 (UACC-62): 34.9 µM (inactive) and 58.3 µM (inactive)

SMILES: Cc1cc(-c2nc3ccc(O)cc3s2)ccc1N
- GI50 (CAKI-1): 34.8 µM (inactive)

SMILES: COc1ccc2c(C)cc(=O)oc2c1OC
- GI50 (786-0): > 100 µM (inactive)
- GI50 (A498): > 100 µM (inactive)
- GI50 (A549): > 100 µM (inactive)
- GI50 (ACHN): > 100 µM (inactive)
- GI50 (CCRF-CEM): > 100 µM (inactive)
- GI50 (COLO 205): > 100 µM (inactive)
- GI50 (DU-145): > 100 µM (inactive)
- GI50 (EKVX): > 100 µM (inactive)
- GI50 (HCT-116): > 100 µM (inactive)
- GI50 (HCT-15): > 100 µM
- GI50 (HOP-62): > 100 µM (inactive)
- GI50 (HT-29): > 100 µM (inactive)
- GI50 (Hs-578T): > 100 µM (inactive)
- GI50 (IGROV-1): > 100 µM (inactive)
- GI50 (K562): > 100 µM (inactive)
- GI50 (KM12): > 100 µM (inactive)
- GI50 (LOX IMVI): > 100 µM (inactive)
- GI50 (M14): > 100 µM (inactive)
- GI50 (MCF7): > 100 µM (inactive)
- GI50 (MDA-MB-231): > 100 µM (inactive)
- GI50 (MDA-MB-435): > 100 µM (inactive)
- GI50 (MDA-N): > 100 µM (inactive)
- GI50 (MOLT-4): > 100 µM (inactive)
- GI50 (Malme-3M): > 100 µM (inactive)
- GI50 (NCI-H226): > 100 µM (inactive)
- GI50 (NCI-H23): > 100 µM (inactive)
- GI50 (NCI/ADR-RES): > 100 µM (inactive)
- GI50 (OVCAR-3): > 100 µM (inactive)
- GI50 (OVCAR-4): > 100 µM (inactive)
- GI50 (OVCAR-5): > 100 µM (inactive)
- GI50 (OVCAR-8): > 100 µM (inactive)
- GI50 (PC-3): > 100 µM (inactive)
- GI50 (RPMI-8226): > 100 µM (inactive)
- GI50 (SF-268): > 100 µM (inactive)
- GI50 (SF-295): > 100 µM (inactive)
- GI50 (SK-MEL-28): > 100 µM (inactive)
- GI50 (SK-MEL-2): > 100 µM (inactive)
- GI50 (SK-MEL-5): > 100 µM (inactive)
- GI50 (SK-OV-3): > 100 µM (inactive)
- GI50 (SN12C): > 100 µM (inactive)
- GI50 (SNB-19): > 100 µM (inactive)
- GI50 (SNB-75): > 100 µM (inactive)
- GI50 (SR): > 100 µM (inactive)
- GI50 (SW-620): > 100 µM (inactive)
- GI50 (TK-10): > 100 µM (inactive)
- GI50 (U-251): > 100 µM (inactive)
- GI50 (UACC-257): > 100 µM (inactive)
- GI50 (UACC-62): > 100 µM (inactive)
- GI50 (UO-31): > 100 µM (inactive)

SMILES: CCOC(=O)C(C)(C)/C=C\C(Cl)=C(Cl)Cl
- GI50 (786-0): > 100 µM (inactive)
- GI50 (A549): > 100 µM (inactive)
- GI50 (ACHN): > 100 µM (inactive)
- GI50 (CAKI-1): > 100 µM (inactive)
- GI50 (CCRF-CEM): 71.6 µM (inactive)
- GI50 (COLO 205): > 100 µM (inactive)
- GI50 (DU-145): > 100 µM (inactive)
- GI50 (EKVX): > 100 µM (inactive)
- GI50 (HCC 2998): > 100 µM (inactive)
- GI50 (HCT-116): > 100 µM (inactive)
- GI50 (HL-60): > 100 µM (inactive)
- GI50 (HOP-62): > 100 µM (inactive)
- GI50 (HOP-92): > 100 µM (inactive)
- GI50 (HT-29): > 100 µM (inactive)
- GI50 (Hs-578T): > 100 µM (inactive)
- GI50 (IGROV-1): > 100 µM (inactive)
- GI50 (K562): > 100 µM (inactive)
- GI50 (KM12): > 100 µM (inactive)
- GI50 (LOX IMVI): > 100 µM (inactive)
- GI50 (M14): > 100 µM (inactive)
- GI50 (MDA-MB-231): > 100 µM (inactive)
- GI50 (MDA-MB-435): > 100 µM (inactive)
- GI50 (MDA-N): > 100 µM (inactive)
- GI50 (MOLT-4): > 100 µM (inactive)
- GI50 (Malme-3M): > 100 µM (inactive)
- GI50 (NCI-H226): > 100 µM (inactive)
- GI50 (NCI-H23): > 100 µM (inactive)
- GI50 (NCI-H522): > 100 µM (inactive)
- GI50 (NCI/ADR-RES): > 100 µM (inactive)
- GI50 (OVCAR-3): > 100 µM (inactive)
- GI50 (OVCAR-5): > 100 µM (inactive)
- GI50 (OVCAR-8): > 100 µM (inactive)
- GI50 (PC-3): > 100 µM (inactive)
- GI50 (RPMI-8226): > 100 µM (inactive)
- GI50 (RXF 393): > 100 µM (inactive)
- GI50 (SF-268): > 100 µM (inactive)
- GI50 (SF-295): > 100 µM (inactive)
- GI50 (SF-539): > 100 µM (inactive)
- GI50 (SK-MEL-28): > 100 µM (inactive)
- GI50 (SK-MEL-5): > 100 µM (inactive)
- GI50 (SK-OV-3): > 100 µM (inactive)
- GI50 (SN12C): > 100 µM (inactive)
- GI50 (SNB-19): > 100 µM (inactive)
- GI50 (SNB-75): > 100 µM (inactive)
- GI50 (SR): > 100 µM (inactive)
- GI50 (SW-620): > 100 µM (inactive)
- GI50 (TK-10): > 100 µM (inactive)
- GI50 (UACC-257): > 100 µM (inactive)
- GI50 (UACC-62): > 100 µM (inactive)
- GI50 (UO-31): > 100 µM (inactive)
